This passage reports Papp A→B results from patent US20200131669A1, “CYCLIC PEPTIDE COMPOUND HAVING HIGH MEMBRANE PERMEABILITY, AND LIBRARY CONTAINING SAME” (Chugai Seiyaku Kabushiki Kaisha, priority 2017, published 2020).

Starred links: 1 amine or outer side, 2 acyl side, 3 side chain; linkers in the order of their positions; H or OH if unused. Positions of bridges follow the written chain, without caps; N, C: chain ends. Non-standard residues stand in square brackets, D forms with d. Residues, ends and D or L forms follow the SMILES beside them. ξ: configuration not given here. *: point of attachment. NMeAbu(3,3-F2-piperidino) = CN[C@@H](CCN1CCCC(F)(F)C1)C(=O)O; Phe(4-CF3) = N[C@@H](Cc1ccc(C(F)(F)F)cc1)C(=O)O; NMeAla(4-thiazolyl) = CN[C@@H](Cc1cscn1)C(=O)O; NMePhe(3-Cl) = CN[C@@H](Cc1cccc(Cl)c1)C(=O)O; NMePhe(4-Cl) = CN[C@@H](Cc1ccc(Cl)cc1)C(=O)O; X8 = O=C(CN(CCN1CCC(F)(F)CC1)[*:1])[*:2]; NMehPhe = CN[C@@H](CCc1ccccc1)C(=O)O; Hyp = O=C(O)[C@@H]1C[C@@H](O)CN1; NMeF = CN[C@@H](Cc1ccccc1)C(=O)O; NMeGABA = CN(CCCC(=O)[*:2])[*:1]; NMeI = CC[C@H](C)[C@H](NC)C(=O)O; hPhe = N[C@@H](CCc1ccccc1)C(=O)O; NMeD = CN[C@@H](CC(=O)O)C(=O)O; NMeL = CN[C@@H](CC(C)C)C(=O)O; dNMeL = CN[C@H](CC(C)C)C(=O)O; Propyl(2R-OH) = C[C@@H](O)C*; NMeNva = CCC[C@H](NC)C(=O)O; NMeV = CN[C@H](C(=O)O)C(C)C; NMeAbu = CC[C@H](NC)C(=O)O; NMeA = CN[C@@H](C)C(=O)O; Piperidide = C1CCN(*)CC1; dNMeA = CN[C@H](C)C(=O)O; Me2NCH2CH2 = CN(C)CC*; NBuGly = CCCCNCC(=O)O; Isopentyl = CC(C)CC*; ξS = NC(CO)C(=O)O; Sar = CNCC(=O)O; tBu = CC(C)(C)*

The nature of the first series: Caco-2 membrane permeability, improved method as used in the following Examples (96-well, 20 to 24 h preincubation). The format is in vitro ADME. Conditions: human, Caco-2, Caco-2. The procedure:
In the following Examples, membrane permeability was measured in accordance with the improved method established as described above. Specifically, Caco-2 cells were cultured on a 96-well Transwell for three weeks, after which DMEM+FaSSIF (1% DMSO)+compound were added to the apical side and DMEM was added to the basal side, and the cells were preincubated at 5% CO2, 37° C., and 80 rpm for 20 to 24 hours. Following the preincubation, measurement of membrane permeability was initiated by removing the preincubation solution on the apical and basal sides by suction, washing the membrane, and adding FaSSIF/HBSS buffer (1% DMSO) (pH 6.0) containing the compound to the apical side and HBSS buffer (4% BSA) (pH 7.4) to the basal side. Each well was shaken at 5% CO2, 37° C., and 80 rpm, and 180 minutes after the initiation, the sample on the basal side was collected and the permeation amount was measured by LC/MS. The membrane permeability coefficient (Papp) was calculated from the permeation amount. Herein, the terms “Caco-2 (cm/sec)” in the columns in the tables and “Papp (cm/sec)” are used in the same meaning.
A general note: Passage across Caco-2 layers is used to estimate intestinal permeability.
`CC(C)CCOCC1NC(=O)[C@H](CC(C)C)N(C)C(=O)[C@H](Cc2ccccc2)N(C)C(=O)CN(C)C(=O)[C@H]([C@@H](C)O)NC(=O)[C@H](CC(C)C)N(C)C(=O)[C@H](C(C)C)NC(=O)[C@H](Cc2ccccc2)N(C)C(=O)CN(C)C(=O)C[C@@H](C(=O)N2CCCCC2)NC(=O)[C@H](CC(C)C)N(C)C1=O` (stereo partly drawn) [pd305] ([Sar][NMeF]V[NMeL]T[Sar][NMeF][NMeL][ξS](Isopentyl)[NMeL]D-Piperidide; lactam N-11) came in with a Papp A→B at 180 min of 2.3 ×10⁻⁶ cm/s.

`CC[C@H]1C(=O)N[C@@H]([C@@H](C)O)C(=O)N(C)CC(=O)N(C)[C@@H](CC(C)C)C(=O)N[C@@H](CC(C)C)C(=O)N(C)[C@@H](Cc2ccccc2)C(=O)N(C)[C@@H](CC(C)C)C(=O)N[C@H](C(=O)N2CCCCC2)CC(=O)N[C@H](C(C)C)C(=O)N(C)[C@@H](CCc2ccccc2)C(=O)N[C@@H](CC(C)C)C(=O)N1C` [pd320] ([dV][NMehPhe]L[NMeAbu]T[Sar][NMeL]L[NMeF][NMeL]D-Piperidide; lactam N-11): the Papp A→B at 180 min worked out at 1.7 ×10⁻⁶ cm/s.

Regarding `CCC[C@H]1C(=O)N[C@@H](CC(C)C)C(=O)N(C)[C@@H](CC(C)C)C(=O)N[C@@H]([C@@H](C)O)C(=O)N2C[C@H](OCC)C[C@H]2C(=O)N(C)[C@@H](CC(C)C)C(=O)N[C@@H]([C@@H](C)CC)C(=O)N(C)[C@@H](CC(C)C)C(=O)N2CCC[C@H]2C(=O)N[C@H](C(=O)N2CCCCC2)CC(=O)N(C)[C@H](CC(C)C)C(=O)N1C` [pd381] ([dNMeL][NMeNva]L[NMeL]T[Hyp](Et)[NMeL]I[NMeL]PD-Piperidide; lactam N-11), the Papp A→B at 180 min worked out at 5.6 ×10⁻⁶ cm/s.

For the molecule `CC(C)C[C@@H]1NC(=O)[C@H](Cc2ccccc2)N(C)C(=O)[C@H](CC(C)C)N(C)C(=O)[C@H](CC(C)C)NC(=O)[C@H](C)N(C)C(=O)C[C@@H](C(=O)N2CCCCC2)NC(=O)[C@H](CC(C)C)N(C)C(=O)CN(C)C(=O)[C@H]([C@@H](C)O)NC(=O)CN(CCN2CCC(F)(F)CC2)C(=O)[C@H](Cc2ccccc2)N(C)C1=O` [pd456] ([NMeA]L[NMeL][NMeF]L[NMeF][X8]T[Sar][NMeL]D-Piperidide; lactam N-11), the Papp A→B at 180 min was found to be 5 ×10⁻⁶ cm/s.

In turn, `CCCCN1CC(=O)N(C)[C@@H](Cc2ccccc2)C(=O)N[C@@H](COCCN(C)C)C(=O)N(C)[C@@H](CC(C)C)C(=O)N[C@@H]([C@@H](C)O)C(=O)N(C)CC(=O)N(C)[C@@H](Cc2ccccc2)C(=O)N(C)[C@@H](CC)C(=O)N[C@@H](COCCC(C)C)C(=O)N(C)[C@@H](CC(C)C)C(=O)N[C@H](C(=O)N2CCCCC2)CC1=O` [pd58] ([NBuGly][NMeF]S(Me2NCH2CH2)[NMeL]T[Sar][NMeF][NMeAbu]S(Isopentyl)[NMeL]D-Piperidide; lactam N-11) gave a Papp A→B at 180 min of 0.021 ×10⁻⁶ cm/s.

`CC(C)C[C@H]1C(=O)N[C@@H](CCc2ccccc2)C(=O)N(C)[C@@H](Cc2ccccc2)C(=O)N(C)[C@@H](CC(C)C)C(=O)N[C@H](C(=O)N2CCCCC2)CC(=O)N[C@H](C(C)C)C(=O)N(C)[C@@H](C)C(=O)N[C@@H](C(C)C)C(=O)N(C)[C@@H](CC(C)C)C(=O)N[C@@H]([C@@H](C)O)C(=O)N(C)CC(=O)N1C` [pd313] ([dV][NMeA]V[NMeL]T[Sar][NMeL][hPhe][NMeF][NMeL]D-Piperidide; lactam N-11) yielded a Papp A→B at 180 min of 2.5 ×10⁻⁶ cm/s.

With `CC(C)C[C@@H]1NC(=O)[C@H](Cc2ccccc2)N(C)C(=O)[C@H](Cc2ccccc2)N(C)C(=O)[C@H](CC(C)C)NC(=O)[C@H](CC(C)C)N(C)C(=O)CCCN(C)C(=O)C[C@@H](C(=O)N2CCCCC2)NC(=O)[C@H](C)N(C)C(=O)[C@H](CCN2CCCC(F)(F)C2)N(C)C(=O)[C@H]([C@@H](C)O)NC(=O)[C@H](CC(C)C)N(C)C1=O` [pd390] ([NMeGABA][NMeL]L[NMeF][NMeF]L[NMeL]T[NMeAbu(3,3-F2-piperidino)][NMeA]D-Piperidide; lactam N-11), the Papp A→B at 180 min turned out to be 2 ×10⁻⁶ cm/s.

The same series, now with this note: human, Caco-2, Caco-2 (cm/sec).
As to `CC(C)C[C@@H]1NC(=O)[C@H](C)N(C)C(=O)C[C@@H](C(=O)N2CCCCC2)NC(=O)[C@H](CC(C)C)N(C)C(=O)CN(C)C(=O)[C@H]([C@@H](C)O)NC(=O)[C@H](CC(C)C)N(C)C(=O)[C@H](Cc2ccc(Cl)cc2)N(C)C(=O)[C@H](C)NC(=O)[C@H](Cc2ccccc2)N(C)C(=O)[C@H](CC(C)C)N(C)C1=O` [pd173] ([NMeA]L[NMeL][NMeF]A[NMePhe(4-Cl)][NMeL]T[Sar][NMeL]D-Piperidide; lactam N-11), the Papp A→B at 180 min was 1.6 ×10⁻⁶ cm/s.

In turn, `CC(C)C[C@H]1C(=O)N[C@@H](COC(C)(C)C)C(=O)N(C)[C@@H](Cc2ccccc2)C(=O)N(C)[C@@H](CC(C)C)C(=O)N(C)[C@H](C(=O)N2CCCCC2)CC(=O)N2CCC[C@@H]2C(=O)N(C)[C@@H](Cc2cccc(Cl)c2)C(=O)N[C@@H](C(C)C)C(=O)N(C)[C@@H](C(C)C)C(=O)N[C@@H]([C@@H](C)O)C(=O)N(C)CC(=O)N1C` [pd165] ([dP][NMePhe(3-Cl)]V[NMeV]T[Sar][NMeL]S(tBu)[NMeF][NMeL][NMeD]-Piperidide; lactam N-11) gave a Papp A→B at 180 min of 2.8 ×10⁻⁶ cm/s.

`CC[C@H](C)[C@H]1C(=O)N[C@@H](Cc2ccc(O)cc2)C(=O)N(C)CC(=O)N(C)[C@@H](CC(C)C)C(=O)N[C@H](C(=O)N2CCCCC2)CC(=O)N(C)[C@@H](C)C(=O)N[C@@H](CC(C)C)C(=O)N(C)[C@@H](C)C(=O)N(C)[C@@H](Cc2ccccc2)C(=O)N[C@@H](C(C)C)C(=O)N(C)[C@@H](C)C(=O)N1C` [pd116] ([NMeA]L[NMeA][NMeF]V[NMeA][NMeI]Y[Sar][NMeL]D-Piperidide; lactam N-11) returned a Papp A→B at 180 min of 0.14 ×10⁻⁶ cm/s.

For `CC(C)C[C@@H]1NC(=O)[C@H](Cc2ccccc2)N(C)C(=O)[C@H](C)N(C)C(=O)C[C@@H](C(=O)N2CCCCC2)NC(=O)[C@H](CC(C)C)N(C)C(=O)[C@H](Cc2ccccc2)N(C)C(=O)[C@H](Cc2ccccc2)NC(=O)[C@H](Cc2cscn2)N(C)C(=O)[C@H](C)N(C)C(=O)[C@H]([C@@H](C)O)NC(=O)[C@H](CC(C)C)N(C)C1=O` [pd226] ([NMeA][NMeF]L[NMeL]T[NMeA][NMeAla(4-thiazolyl)]F[NMeF][NMeL]D-Piperidide; lactam N-11), the Papp A→B at 180 min came out at 0.68 ×10⁻⁶ cm/s.

Molecule `CC(C)C[C@@H]1NC(=O)[C@H](CC(C)C)N(C)C(=O)[C@H](C)N(C)C(=O)[C@H]([C@@H](C)O)NC(=O)[C@H](CC(C)C)N(C)C(=O)[C@H](COC(C)(C)C)NC(=O)[C@H](Cc2cccc(Cl)c2)N(C)C(=O)[C@H](CC(C)C)NC(=O)[C@H](C(C)C)N(C)C(=O)[C@@H](C(C)C)NC(=O)C[C@@H](C(=O)N2CCCCC2)NC1=O` [pd171] ([dV][NMeV]L[NMePhe(3-Cl)]S(tBu)[NMeL]T[NMeA][NMeL]LD-Piperidide; lactam N-11) yielded a Papp A→B at 180 min of 1.2 ×10⁻⁶ cm/s.

Turning to `CC(C)C[C@@H]1NC(=O)[C@H](Cc2ccccc2)N(C)C(=O)[C@H](C)N(C)C(=O)C[C@@H](C(=O)N2CCCCC2)NC(=O)[C@H](CC(C)C)N(C)C(=O)[C@H](Cc2ccccc2)N(C)C(=O)[C@H](Cc2ccccc2)NC(=O)[C@H](Cc2cscn2)N(C)C(=O)[C@H](C)N(C)C(=O)[C@H](CC(C)C)N(C)C(=O)[C@H]([C@@H](C)O)NC1=O` [pd238] ([NMeA][NMeF]LT[NMeL][NMeA][NMeAla(4-thiazolyl)]F[NMeF][NMeL]D-Piperidide; lactam N-11), the Papp A→B at 180 min came out at 0.088 ×10⁻⁶ cm/s.

`CC[C@H](C)[C@@H]1NC(=O)[C@H](C(C)C)N(C)C(=O)[C@H](C)N(C)C(=O)[C@H]([C@@H](C)O)NC(=O)[C@H](CC(C)C)N(C)C(=O)[C@H](Cc2ccc(C(F)(F)F)cc2)NC(=O)[C@H](CC(C)C)N(C)C(=O)[C@@H](C)N(C)C(=O)C[C@@H](C(=O)N2CCCCC2)NC(=O)[C@H](CC(C)C)NC(=O)[C@@H]2CCCN2C1=O` [pd133] ([dNMeA][NMeL][Phe(4-CF3)][NMeL]T[NMeA][NMeV]IPLD-Piperidide; lactam N-11) gave a Papp A→B at 180 min of 2.3 ×10⁻⁶ cm/s.

With `CC[C@H](C)[C@@H]1NC(=O)[C@H](Cc2ccccc2)N(C)C(=O)[C@H]([C@@H](C)O)NC(=O)[C@@H](C)NC(=O)C[C@@H](C(=O)N(C)[C@@H](Cc2ccccc2)C(=O)N(C)[C@@H](Cc2ccccc2)C(=O)N[C@@H](C)C(=O)N2CCCCC2)NC(=O)[C@H](CC(C)C)N(C)C(=O)[C@H](CC(C)C)N(C)C(=O)[C@H](Cc2ccccc2)N(C)C(=O)[C@H](CC(C)C)N(C)C(=O)[C@H](C)N(C)C1=O` [pd242] ([dA]T[NMeF]I[NMeA][NMeL][NMeF][NMeL][NMeL]D[NMeF][NMeF]A-Piperidide; lactam N-10), the Papp A→B at 180 min turned out to be 0.058 ×10⁻⁶ cm/s.

Staying with this series, now noted: human; Papp, Caco-2 membrane permeability, improved method; read-out: Caco-2.
`CC(C)C[C@H]1C(=O)N[C@@H](COC(C)(C)C)C(=O)N(C)[C@@H](Cc2ccccc2)C(=O)N(C)[C@@H](CC(C)C)C(=O)N[C@H](C(=O)N2CCCCC2)CC(=O)N[C@@H](C(C)C)C(=O)N(C)[C@@H](Cc2ccccc2)C(=O)N[C@@H](COC[C@@H](C)O)C(=O)N(C)[C@@H](CC(C)C)C(=O)N[C@@H](C(C)C)C(=O)N(C)CC(=O)N1C` [pd492] (V[NMeF]S(Propyl(2R-OH))[NMeL]V[Sar][NMeL]S(tBu)[NMeF][NMeL]D-Piperidide; lactam N-11): the Papp A→B at 180 min is 2.5 ×10⁻⁶ cm/s.
